Data taken from patent publication EP4755886A1 (Chengdu Chipscreen Pharmaceutical Ltd., priority 2023, dated 2025).
Like-named read-outs stand apart in the source and are kept apart here.

Key:
[1] = tested on: wild-type HCT-116 cells; experiment: Cell proliferation (MTS), wild-type HCT-116; format: cell-based; conditions: Homo sapiens, 240 h; wild-type HCT-116, 10 days with compound, MTS reading; read-out: IC50 HCT116 WT
In short: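 Wild-type HCT-116 cells were seeded at 100 cells/well in McCoy's 5A/10% FBS. From day 1 they were treated with compound in 3-fold dilutions (initial 20 µM, 8 points) for 10 days at 37° C. Proliferation was read by MTS on day 11, and IC50 was obtained from a four-parameter logistic fit.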

[2] = tested on: MTAP^-/- HCT-116 cells; experiment: Cell proliferation (MTS), MTAP-/- HCT-116; format: cell-based, human; conditions: for Selectivity: HCT116 WT IC50 relative to HCT116 MTAP-/- IC50; for IC50: Homo sapiens, 240 h, MTAP-/- HCT-116, 10 days with compound, MTS reading, read-out: IC50 HCT116 MTAP-/-
In short: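 MTAP-/- (CRISPR/Cas9 biallelic knockout) or wild-type HCT-116 cells seeded at 100 cells/well, treated next day with 8-point 3-fold dilutions (top 20 µM) for 10 days at 37 °C, 5% CO2. Viability read by MTS; IC50 from four-parameter logistic fit of inhibition rate vs log concentration.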

[3] = Human liver microsome stability; format: in vitro ADME; conditions: pH 7.4; human liver microsomes 0.5 mg/mL, compound 1 µM, NADPH 1 mM, 37 °C
Experimental: (§1) Experimental materials: human liver microsomes (purchased from BIOIVT);
(§2) PBS: 0.1 M KH2PO4 and K2HPO4 buffers, pH 7.4.
MgCl2: a certain amount of MgCl2 was weighed out and prepared into a 16 mM MgCl2 solution with PBS.
NADPH (Chinese name: reduced nicotinamide adenine dinucleotide phosphate, purchased from Sigma, Cat. No.: 481973-500 mg): a certain amount of NADPH was weighed out and a 4 mM solution of NADPH was prepared with a 16 mM MgCl2 solution, and the final incubation concentration was 1 mM.
Compounds: 4 µM solutions of the test compounds and positive compounds were prepared with PBS, and the final incubation concentration was 1 µM.
Liver microsomes (purchased from BIOIVT, Cat. No.: X008070): the liver microsomes were diluted to […] with PBS, and the final incubation concentration was 0.5 mg/mL.
The prepared test compound or positive compound was added to a test tube, and then the prepared NADPH was added. The mixture was mixed well. The mixture was pre-incubated in a thermostat incubator at 220 rpm at 37 °C for 5 min, and the prepared liver microsomes were added to start the reaction. All steps were performed in replicate wells. At 0 min, 15 min, 30 min, 45 min, and 60 min, a certain volume of glacial acetonitrile solution containing an internal standard was added to the corresponding tube to precipitate the protein. The mixture was vortexed for 5 min with shaking, and then centrifuged at 4000 rpm for 10 min. […] The samples were analyzed by LC-MS/MS.
The concentrations (peak area ratios) of the example compounds were determined by LC-MS/MS. Rate constants were obtained by plotting "Ln (residual amount of compound %)" versus "incubation time" in Excel, thereby calculating the half-lives and intrinsic clearances of the drugs and providing a basis for the prediction of the in-vivo clearance.
[formula] CLH = CLint × fu × Qh /(CLint×fu+Qh) [formula]
Stability in human liver microsomes

[4] = PK experiment in mice; conditions: female, BALB/c, mouse, plasma, po, 10 mg/kg
Experimental: (§3) Experimental materials: the experimental animals were healthy adult female BALB/c mice (provided by Sichuan Vital River Laboratory Animal Technology Co., Ltd.).
(§4) Administration mode and sample collection in mice: BALB/c female mice received oral intragastrical administration (10 mg/kg, vehicle: 0.5% methylcellulose/0.2% Tween 80), and 60 µL of whole blood from the venous plexus of the fundus of the mice at different time points was collected at 0.25 h, 0.5 h, 1 h, 2 h, 4 h, 6 h, 8 h, and 24 h after administration and centrifuged at 4000 rpm for 6 min to collect plasma.
(§5) 10 µL of mouse plasma sample was added to 190 µL of acetonitrile solution containing an internal standard to precipitate protein. The mixture was vortexed for 10 min and centrifuged at 4000 rpm for 10 min. The supernatant was collected and added to a 96-well plate. The samples were analyzed by LC-MS/MS. The drug concentrations in the plasma of mice at different time points after intragastric administration of the example compounds were measured by an LC-MS/MS method, and the related pharmacokinetic parameters were calculated, such that the pharmacokinetic behavior of the compounds in the mice was studied, and the pharmacokinetic characteristics were evaluated.

[5] = PK experiment in rats; format: in vivo; conditions: rat; SD male rats, PO 10 mg/kg, vehicle 0.5% MC/0.2% Tween 80, plasma
Experimental: The samples were analyzed by LC-MS/MS. […] Table 6. Pharmacokinetic parameters for rats

[6] = target: T1, CYP450 enzyme 3A4 (Homo sapiens, UniProt P08684); experiment: CYP inhibition test in human liver microsomes; format: in vitro ADME; conditions: human liver microsomes 0.1 mg/mL
T1 construct: Liver microsomes (purchased from BIOIVT, Cat. No.: X008070); tissue BIOIVT X008070; host or cells: human liver microsomes
T1 sequence (P08684 whole entry): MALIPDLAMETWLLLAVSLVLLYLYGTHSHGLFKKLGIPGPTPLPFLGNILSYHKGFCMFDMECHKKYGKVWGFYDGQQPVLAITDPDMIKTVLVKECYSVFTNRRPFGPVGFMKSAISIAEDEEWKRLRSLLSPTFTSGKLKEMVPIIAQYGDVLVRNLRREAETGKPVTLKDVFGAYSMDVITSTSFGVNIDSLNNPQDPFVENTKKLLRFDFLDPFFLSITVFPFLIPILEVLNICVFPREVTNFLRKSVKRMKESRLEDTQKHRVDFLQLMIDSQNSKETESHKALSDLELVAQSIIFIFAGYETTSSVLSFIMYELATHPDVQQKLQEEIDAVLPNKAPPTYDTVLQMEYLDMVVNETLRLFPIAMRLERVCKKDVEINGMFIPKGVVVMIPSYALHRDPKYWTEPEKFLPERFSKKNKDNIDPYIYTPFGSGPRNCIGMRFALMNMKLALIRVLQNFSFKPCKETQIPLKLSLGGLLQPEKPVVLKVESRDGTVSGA
Experimental: as §1, §2
MgCl2: a certain amount of MgCl2 was weighed out and prepared into a 20 mM MgCl2 solution with PBS.
NADPH (Chinese name: reduced nicotinamide adenine dinucleotide phosphate, purchased from Sigma, Cat. No.: 481973-500 mg): a certain amount of NADPH was weighed out and a 5 mM solution of NADPH was prepared with a 20 mM MgCl2 solution, and the final incubation concentration was 1 mM.
Compounds: 3 mM, 1 mM, 0.3 mM, 0.1 mM, 0.03 mM, 0.01 mM, and 0 mM solutions of the test compounds were prepared with a DMSO-methanol (v:v = 1:9) solution, and the final incubation concentrations were 30 µM, 10 µM, 3 µM, 1 µM, 0.3 µM, 0.1 µM, and 0 µM. 30 µM, 10 µM, 3 µM, 1 µM, 0.3 µM, and 0 µM solutions of the positive compound (ketoconazole) were prepared with a DMSO-methanol (v:v = 1:9) solution, and the final incubation concentrations were 0.3 µM, 0.1 µM, 0.03 µM, 0.01 µM, 0.003 µM, and 0 µM.
Substrate working solutions: 200 µM and 15 µM solutions of substrate working solutions (testosterone and midazolam) were prepared with PBS, separately, and the final incubation concentrations were 40 µM and 3 µM.
Liver microsomes (purchased from BIOIVT, Cat. No.: X008070): the liver microsomes were diluted to […] with PBS, and the final incubation concentration was 0.1 mg/mL.
The prepared test compounds or positive compounds were added to a 96-well plate, and then the prepared human liver microsome working solution and substrate working solution were added. The mixture was mixed well. The mixture was pre-incubated in a thermostat incubator at 37 °C for 5 min, and then the prepared NADPH was added to start the reaction. The mixture was incubated for 5 min or 10 min. After the incubation was completed, a pre-cooled acetonitrile solution containing an internal standard was added to terminate the reaction. After protein precipitation, the mixture was vortexed for 5 min with shaking and then centrifuged at 4000 rpm for 10 min. The supernatant was collected and added to the 96-well plate. The content (peak concentration ratio) of the metabolites of the substrate was determined by an LC-MS/MS method. The residual activity and the half maximal inhibitory concentration (IC50) of the enzyme were calculated based on the detected content.
Percentage of remaining enzyme activity: The activity of each subtype of CYP450 enzyme was expressed as the amount of metabolite produced, and the percentage of remaining enzyme activity was calculated as follows: [formula]
The concentrations of the test substances and the corresponding residual activity percentages were fitted using a nonlinear model of Excel software, and the concentration of the test substances at which 50% inhibition of metabolite production was achieved was the IC50 value.

[7] = target: T2, hERG (Homo sapiens, UniProt Q12809); experiment: hERG test (Predictor hERG Fluorescence Polarization Assay Kit); format: binding; conditions: for inhibition at 3.5 h, 10 µM: human, probe Predictor hERG Tracer Red, 10 µM test substance, three duplicate wells; for IC50: only 10 µM tested
T2 construct: purchased ThermoFisher Scientific PV5365
T2 sequence (Q12809 whole entry): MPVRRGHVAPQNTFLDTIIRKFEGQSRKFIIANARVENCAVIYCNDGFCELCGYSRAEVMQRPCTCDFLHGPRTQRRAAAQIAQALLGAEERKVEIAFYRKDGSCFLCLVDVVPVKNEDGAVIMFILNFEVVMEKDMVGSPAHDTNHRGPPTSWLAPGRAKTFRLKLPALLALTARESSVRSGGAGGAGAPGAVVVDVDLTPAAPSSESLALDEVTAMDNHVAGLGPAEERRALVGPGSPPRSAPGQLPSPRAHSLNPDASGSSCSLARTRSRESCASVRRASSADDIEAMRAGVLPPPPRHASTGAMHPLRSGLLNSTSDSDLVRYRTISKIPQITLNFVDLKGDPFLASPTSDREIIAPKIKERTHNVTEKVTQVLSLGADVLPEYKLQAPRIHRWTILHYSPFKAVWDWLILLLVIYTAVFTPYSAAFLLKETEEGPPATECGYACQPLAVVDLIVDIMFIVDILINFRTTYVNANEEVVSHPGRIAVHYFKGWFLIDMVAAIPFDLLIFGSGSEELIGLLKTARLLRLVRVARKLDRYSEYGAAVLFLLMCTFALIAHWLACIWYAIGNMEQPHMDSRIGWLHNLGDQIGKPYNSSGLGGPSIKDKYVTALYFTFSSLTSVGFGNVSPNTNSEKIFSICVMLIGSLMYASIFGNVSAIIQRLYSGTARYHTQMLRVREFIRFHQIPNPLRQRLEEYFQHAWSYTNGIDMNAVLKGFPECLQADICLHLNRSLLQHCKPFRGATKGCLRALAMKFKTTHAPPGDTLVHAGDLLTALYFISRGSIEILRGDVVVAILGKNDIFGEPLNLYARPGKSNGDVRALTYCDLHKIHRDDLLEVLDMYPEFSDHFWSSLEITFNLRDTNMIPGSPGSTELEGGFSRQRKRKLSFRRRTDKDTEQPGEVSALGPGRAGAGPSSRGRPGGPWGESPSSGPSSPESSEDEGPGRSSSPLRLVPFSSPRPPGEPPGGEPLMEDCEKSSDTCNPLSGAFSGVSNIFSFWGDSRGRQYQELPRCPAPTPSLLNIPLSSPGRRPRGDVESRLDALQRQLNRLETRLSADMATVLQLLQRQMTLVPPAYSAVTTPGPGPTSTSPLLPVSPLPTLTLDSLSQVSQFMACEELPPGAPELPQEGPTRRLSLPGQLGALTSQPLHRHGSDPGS
Experimental: Predictor™ hERG Fluorescence Polarization Assay Kit (ThermoFisher Scientific, PV5365).
The procedures in the kit instructions were followed: 4× Predictor™ hERG Tracer Red, 4× E-4031, and 4× test substance solutions (final assay concentration: 10 µM) were prepared in advance. 5 µL Predictor™ hERG FP Assay Buffer and 5 µL Predictor™ hERG Membrane were added sequentially to the Assay Blank group in a 384-well plate. 2.5 µL Predictor™ hERG FP Assay Buffer, 2.5 µL of 4× E-4031, and 2.5 µL of 4× test substance were added to the negative control group, the positive control group, and the test substance group, respectively, and then 5 µL Predictor™ hERG Membrane and 2.5 µL of 4× Predictor™ hERG Tracer Red were sequentially added. The total volume of the experimental system was 10 µL, and three duplicate wells were set for each group. After loading, the plate was gently tapped to mix well and incubated at room temperature (25 °C) in the dark for 3.5 h. After the incubation was completed, the fluorescence polarization value mP was measured on a microplate reader, and G Factor was 2.14.
The inhibition rate of the test substance was calculated using the following formula: [formula]

[8] = in vivo; conditions: mouse, po, 10 mg/kg
Experimental: as §3, §4, §5

## CN(C(=O)c1ccc2nc(N)c3cnn(C)c3c2c1)C1COc2cc(C#Cc3cnn(C4CC4)c3)ccc21 (stereo not shown) [Compound 4, 4-amino-N-(6-((1-cyclopropyl-1H-pyrazol-4-yl)ethynyl)-2,3-dihydrobenzofuran-3-yl)-N,1-dimethyl-1H-pyrazolo[4,3-c]quinoline-8-carboxamide]
[1]
  IC50: 1.32 µM
[2]
  Selectivity: 165
  IC50: 0.008 µM
[3]
  half-life at 1 µM: 169 min
[4]
  AUC(0-t): 9.15 ± 2.24 µg·h/mL
  Cmax: 0.634 ± 0.071 µg/mL

## CN(C(=O)c1cc2c3c(c(N)nc2cc1F)COC3)[C@@H]1COc2cc(C#Cc3cnn(C4CC4)c3)ccc21 [Compound 16A, (S)-4-amino-N-(6-((1-cyclopropyl-1H-pyrazol-4-yl)ethynyl)-2,3-dihydrobenzofuran-3-yl)-7-fluoro-N-methyl-1,3-dihydrofuro[3,4-c]quinoline-8-carboxamide]
[1]
  IC50: 1.17 µM
[2]
  Selectivity: 84
  IC50: 0.0139 µM
[5]
  AUC(0-t): 13.7 ± 2.77 µg·h/mL
  Cmax: 1.28 ± 0.27 µg/mL
[4]
  AUC(0-t): 23.3 ± 5.52 µg·h/mL
  Cmax: 1.6 ± 0.352 µg/mL

## CN(C(=O)c1cc2c3c(c(N)nc2cc1Cl)COC3)[C@@H]1COc2cc(C#Cc3cnn(C)c3)ccc21 [Compound 40A, (S)-4-amino-7-chloro-N-methyl-N-(6-((1-methyl-1H-pyrazol-4-yl)ethynyl)-2,3-dihydrobenzofuran-3-yl)-1,3-dihydrofuro[3,4-c]quinoline-8-carboxamide]
[1]
  IC50: 0.483 µM
[2]
  Selectivity: 105
  IC50: 0.0046 µM
[3]
  half-life at 1 µM: 62.9 min
[6]; substrate midazolam 3 µM, read-out: IC50 3A4-Midazolam
  IC50: > 30 µM
[6]; substrate testosterone 40 µM, read-out: IC50 3A4-Testosterone
  IC50: > 30 µM
[4]
  AUC(0-t): 10.1 ± 3.5 µg·h/mL
  Cmax: 0.793 ± 0.028 µg/mL

## Cc1ncccc1C#Cc1ccc2c(c1)OC[C@H]2N(C)C(=O)c1cc2c3c(c(N)nc2cc1Cl)COC3 [Compound 57A, (S)-4-amino-7-chloro-N-methyl-N-(6-((2-methylpyridin-3-yl)ethynyl)-2,3-dihydrobenzofuran-3-yl)-1,3-dihydrofuro[3,4-c]quinoline-8-carboxamide]
[1]
  IC50: 1 µM
[2]
  Selectivity: 125
  IC50: 0.008 µM
[7]
  inhibition at 3.5 h, 10 µM: 14.2 ± 18%
  IC50: > 10 µM
[4]
  AUC(0-t): 10.5 ± 2.4 µg·h/mL
  Cmax: 1.81 ± 0.195 µg/mL

## CN(C(=O)c1cc2c(cc1F)nc(N)c1cnn(C)c12)[C@@H]1COc2cc(C#Cc3cnc4n3CCCC4)ccc21 [Compound 66A, (S)-4-amino-7-fluoro-N,1-dimethyl-N-(6-((5,6,7,8-tetrahydroimidazo[1,2-a]pyridin-3-yl)ethynyl)-2,3-dihydrobenzofuran-3-yl)-1H-pyrazolo[4,3-c]quinoline-8-carb oxamide]
[1]
  IC50: 0.299 µM
[2]
  Selectivity: 150
  IC50: 0.002 µM
[7]
  inhibition at 3.5 h, 10 µM: 14.2 ± 14%
  IC50: > 10 µM
[4]
  AUC(0-t): 23.2 ± 3.39 µg·h/mL
  Cmax: 3.83 ± 0.533 µg/mL

## [2H]C([2H])([2H])n1cc(C#Cc2ccc3c(c2)OC[C@H]3N(C)C(=O)c2cc3c(cc2F)nc(N)c2cnn(C)c23)cn1 [Compound 82A, (S)-4-amino-7-fluoro-N,1-dimethyl-N-(6-((1-(methyl-D3)-1H-pyrazol-4-yl)ethynyl)-2,3-dihydrobenzofuran-3-yl)-1H-pyrazolo[4,3-c]quinoline-8-carboxamide]
[1]
  IC50: 0.196 µM
[2]
  Selectivity: 75
  IC50: 0.0026 µM
[8]
  AUC(0-t): 14.1 ± 4.74 µg·h/mL
  Cmax: 1.43 ± 0.195 µg/mL

## CN(C(=O)c1cc2c3c(c(N)nc2cc1Cl)COC3)[C@@H]1COc2cc(C#Cc3cnn4c3CCCC4)ccc21 [Compound 91A, (S)-4-amino-7-chloro-N-methyl-N-(6-((4,5,6,7-tetrahydropyrazolo[1,5-a]pyridin-3-yl)ethynyl)-2,3-dihydrobenzofuran-3-yl)-1,3-dihydrofuro[3,4-c]quinoline-8-car boxamide]
[1]
  IC50: 1.39 µM
[2]
  Selectivity: 195
  IC50: 0.0071 µM
[3]
  half-life at 1 µM: 47.2 min

## C#Cc1ccc2c(c1)OCC2N(C)C(=O)c1cc2c(cc1F)nc(N)c1cnn(C)c12 (stereo not shown) [Reference Example 1, reference compound]
[3]
  half-life at 1 µM: 16.6 min

## C#Cc1ccc2c(c1)OCC2N(C)C(=O)c1ccc2nc(N)c3cnn(C)c3c2c1 (stereo not shown) [Reference Example 2]
[3]
  half-life at 1 µM: 33.6 min
[5]
  AUC(0-t): 0.784 ± 0.595 µg·h/mL
  Cmax: 0.131 ± 0.017 µg/mL

## C#Cc1ccc2c(c1)OC[C@H]2N(C)C(=O)c1cc2c3c(c(N)nc2cc1Cl)COC3 [Reference Example 5, reference compound]
[3]
  half-life at 1 µM: 25.6 min
[5]
  AUC(0-t): 2.94 ± 0.438 µg·h/mL
  Cmax: 0.549 ± 0.139 µg/mL
[4]
  AUC(0-t): 9.08 ± 2.79 µg·h/mL
  Cmax: 1.4 ± 0.165 µg/mL

## Nc1nc2cnc(C(=O)N3CCOC[C@@H]3c3ccc(C(F)(F)F)cc3)cc2c2c1COC2 [Reference Example 7, reference compound]
[1]
  IC50: 2.01 µM
[2]
  Selectivity: 21
  IC50: 0.0974 µM
[3]
  half-life at 1 µM: 28.9 min
[5]
  AUC(0-t): 0.853 ± 0.079 µg·h/mL
  Cmax: 0.477 ± 0.11 µg/mL
[4]
  AUC(0-t): 12.6 ± 1.92 µg·h/mL
  Cmax: 1.92 ± 0.076 µg/mL
